Results: patent US8697722B2 (SRI International, priority 2007, dated 2014)
Where two headings read alike, the source gives them in different places.

Assays:
rat α4β2 receptors = molecular target: T1, rat α4β2 receptors (Rattus norvegicus, UniProt P09483+P12390); assay: [3H]epibatidine competition binding on membranes of HEK cells transfected with rat α4β2 receptors
T1 construct: expressed in transfected cells; host or cells: HEK cells (KXα4β2R2)

rat α3β4 receptors = molecular target: T2, rat α3β4 receptors (Rattus norvegicus, UniProt P04757+P12392); assay: [3H]epibatidine competition binding on membranes of HEK cells transfected with rat α3β4 receptors
T2 construct: expressed in transfected cells; host or cells: HEK cells (KXα3β4R2)

[1] = competition with 0.3 nM [3H]epibatidine, KXα4β2R2 HEK cell membranes, 3 h room temperature, read-out: Binding affinities α4β2 (Ki)
[2] = competition with 0.3 nM [3H]epibatidine, KXα3β4R2 HEK cell membranes, 3 h room temperature, read-out: Binding affinities α3β4 (Ki)
[3] = read-out: Binding affinities α4β2 (Ki)
[4] = read-out: Binding affinities α3β4 (Ki)

| SMILES | Ki (rat α4β2 receptors; [1]) [nM] | Ki (rat α3β4 receptors; [2]) [nM] | Ki (rat α4β2 receptors) [nM] | Ki (rat α4β2 receptors; [3]) [nM] | Ki (rat α3β4 receptors; [4]) [nM] | further results |
| --- | --- | --- | --- | --- | --- | --- |
| O=c1cccc2n1C[C@@H]1CNC[C@H]2C1 [Cytisine, reference compound] | 1.53 | 203 | – | – | – | – |
| CN1C2CCC1CC(N1C(=O)Cc3ccccc31)C2 (stereo not shown) [SR 16583] | – | 2790 | > 10000 | – | – | – |
| CN1C2CCCC1CC(N1C(=O)Cc3ccccc31)C2 (stereo not shown) [SR 16584] | – | – | > 10000 | – | – | – |
| O=C1Cc2ccccc2N1C1CC2CCCC(C1)N2 (stereo not shown) [SR 16832] | – | 421 | > 10000 | – | – | – |
| C1=C(c2cccnc2)CC2CC1CN2Cc1ccccc1 (stereo not shown) [SR 17004] | – | – | – | 1.95 | – | Ki (rat α3β4 receptors): 194 nM |
| CN1C2CCCC1CC(Nc1ccccc1)C2 (stereo not shown) [SR 17011] | – | – | – | > 10000 | 826 | – |
| C1=C(c2cnc3ccccc3c2)CC2CC1N(Cc1ccccc1)C2 (stereo not shown) [SR 17015] | 29 | 2480 | – | – | – | – |
| CCOC(=O)N1C2C=C(c3cccnc3)CC1CCC2 (stereo not shown) [SR 17021] | – | – | – | > 10000 | > 10000 | – |
| CN1C2C=C(c3cccnc3)CC1CCC2 (stereo not shown) [SR 17026] | – | – | 10 | – | 240 | – |
| CN1C2C=C(c3cnc4ccccc4c3)CC1CCC2 (stereo not shown) [SR 17027] | 423 | 2610 | – | – | – | – |
